Laboratory results reported in patent publication US9133219B2, “Bicyclic antibiotics” (Basilea Pharmaceutica AG, priority 2009, dated 2015).
In brackets after ≈: the same amount, converted by molar mass.

Legend:
Format in all cases: cell-based
Staphylococcus aureus = assay: Anti-microbial activity assay, MIC by broth microdilution; conditions: Staphylococcus aureus; strain ATCC29213; read-out: MIC Staphylococcus aureus ATCC29213
Procedure: (§1) Anti-Microbial Activity Assay.
(§2) The antibacterial activity of compounds is determined by the minimal inhibitory concentration (MIC) method. MICs for all bacteria except pneumococci and Haemophilus influenzae are obtained by broth microdilution with cation-adjusted Mueller-Hinton broth (CAMHB; BBL), according to CLSI guidelines (National Committee for Clinical Laboratory Standards. 2003. Methods for dilution antimicrobial susceptibility tests for bacteria that grow aerobically, 5th ed.; approved standard M7-A6. National Committee for Clinical Laboratory Standards, Wayne, Pa.), with the following modifications: (i) for pneumococci CAMHB is supplemented with 5% (^v/v) horse serum; (ii) for Haemophilus influenzae CAMHB is supplemented with 5% (^v/v) Fildes enrichment (BBL) (Pankuch, G. A., Hoellman, D. B., Lin, G., Bajaksouzian, S., Jacobs, M. R., and Appelbaum, P. C. 1998. Activity of HMR 3647 compared to those of five agents against Haemophilus influenzae and Moraxella catarrhalis by MIC determination and time-kill assay. Antimicrob. Agents Chemother. 42:3032-3034). Microtiter plates are incubated at 35° C. in ambient air for 20 to 24 h, then inspected using an illuminated microtiter plate reader fitted with a magnifying mirror (MIC 2000; Cooke Laboratory Products, Alexandria, Va.). Compounds of the present invention are tested against several bacteria strains comprising some Acinetobacter baumannii, Enterococcus faecalis, Enterococcus faecitan, Escherichia coli, Haemophilus influenzae, Klebsiella pneumoniae, Pseudomonas aeruginosa, Staphylococcus aureus, Staphylococcus epidermidis and Streptococcus pneumoniae.

Escherichia coli = assay: as above; conditions: Escherichia coli; strain UB1005; read-out: MIC Escherichia coli UB1005
Procedure: as §1, §2

[1] = test system: Staphylococcus epidermidis; assay: as above; conditions: Staphylococcus epidermidis; strain ATCC14990
Procedure: as §1, §2

Streptococcus pneumoniae = assay: Anti-microbial activity assay, MIC by broth microdilution (CAMHB with 5% horse serum); conditions: Streptococcus pneumoniae; strain ATCC49619; CAMHB with 5% horse serum; read-out: MIC Streptococcus pneumoniae ATCC49619
Procedure: as §1, §2

[2] = test system: Staphylococcus aureus and/or Staphylococcus epidermidis; assay: MIC summary statement, staphylococci; conditions: generally, for Staphylococcus aureus and/or Staphylococcus epidermidis
Procedure: as §1, §2

[3] = test system: Staphylococcus aureus and/or Staphylococcus epidermidis and/or Streptococcus pneumoniae and/or Escherichia coli; assay: MIC summary statement, staphylococci, pneumococci and E. coli; conditions: generally, for S. aureus and/or S. epidermidis and/or S. pneumoniae and/or E. coli; in most case of less than 2 mg/L
Procedure: as §1, §2

[4] = test system: Staphylococcus aureus and/or Staphylococcus epidermidis and/or Streptococcus pneumoniae; assay: MIC summary statement, staphylococci and pneumococci; conditions: generally, for Staphylococcus aureus and/or Staphylococcus epidermidis and/or Streptococcus pneumoniae
Procedure: as §1, §2

SMILES | MIC (Staphylococcus aureus) | MIC (Escherichia coli) | MIC [1] | MIC (Streptococcus pneumoniae) | MIC [2] | MIC [3] | MIC [4]
COc1ccc2ncc(OCCCN3CCC(CNCc4ccc5c(n4)NC(=O)CO5)CC3)nc2c1 [Example 9, 6-[({1-[3-(7-methoxy-quinoxalin-2-yloxy)-propyl]-piperidin-4-ylmethyl}-amino)-methyl]-4H-pyrido[3,2-b][1,4]oxazin-3-one] | ≤ 2 µg/mL | 4 µg/mL (≈ 8.12 µM) | 4 µg/mL (≈ 8.12 µM) | ≤ 2 µg/mL | ≤ 2 µg/mL | ≤ 4 µg/mL | ≤ 2 µg/mL
COc1ccc2ncc(SCCN3CCC(NC(=O)c4ccc5c(c4)NC(=O)CO5)CC3)nc2c1 [Example 36, 3-oxo-3,4-dihydro-2H-benzo[1,4]oxazine-6-carboxylic acid {1-[2-(7-methoxy-quinoxalin-2-ylsulfanyl)-ethyl]-piperidin-4-yl}-amide] | ≤ 2 µg/mL | 4 µg/mL (≈ 8.1 µM) | ≤ 2 µg/mL | ≤ 2 µg/mL | ≤ 2 µg/mL | ≤ 4 µg/mL | ≤ 2 µg/mL
COc1ccc2ncc(SCCN3CCC(NC(=O)c4cc5c(cc4Cl)SCC(=O)N5)CC3)nc2c1 [Example 37, 7-chloro-3-oxo-3,4-dihydro-2H-benzo[1,4]thiazine-6-carboxylic acid {1-[2-(7-methoxy-quinoxalin-2-ylsulfanyl)-ethyl]-piperidin-4-yl}-amide] | ≤ 2 µg/mL | ≤ 2 µg/mL | ≤ 2 µg/mL | ≤ 2 µg/mL | ≤ 2 µg/mL | ≤ 4 µg/mL | ≤ 2 µg/mL
COc1ccc2ncc(SCCN3CCC(NCc4cc(-c5cccs5)on4)CC3)nc2c1 [Example 42, {1-[2-(7-methoxy-quinoxalin-2-ylsulfanyl)-ethyl]-piperidin-4-yl}-(5-thiophen-2-yl-isoxazol-3-ylmethyl)-amine] | ≤ 2 µg/mL | 8 µg/mL (≈ 16.6 µM) | ≤ 2 µg/mL | ≤ 2 µg/mL | ≤ 2 µg/mL |  | ≤ 2 µg/mL
COc1ccc2ncc(SCCN3CCC(N(C)Cc4ccc5c(c4)OCCO5)CC3)nc2c1 [Example 43, (2,3-dihydro-benzo[1,4]dioxin-6-ylmethyl)-{1-[2-(7-methoxy-quinoxalin-2-ylsulfanyl)-ethyl]-piperidin-4-yl}-methyl-amine] | ≤ 2 µg/mL | 16 µg/mL (≈ 33.3 µM) | ≤ 2 µg/mL | ≤ 2 µg/mL | ≤ 2 µg/mL |  | ≤ 2 µg/mL
COc1ccc2ncc(SCCN3CCC(NC(=O)c4cc5c(cc4Cl)SCCN5)CC3)nc2c1 [Example 44, 7-chloro-3,4-dihydro-2H-benzo[1,4]thiazine-6-carboxylic acid {1-[2-(7-methoxy-quinoxalin-2-ylsulfanyl)-ethyl]-piperidin-4-yl}-amide] | ≤ 2 µg/mL | 4 µg/mL (≈ 7.55 µM) | ≤ 2 µg/mL | 4 µg/mL (≈ 7.55 µM) | ≤ 2 µg/mL | ≤ 4 µg/mL | 
COc1ccc2ncc(SCCN3CCC(NCc4ccc5c(n4)NC(=O)CO5)CC3)nc2c1 [Example 45, 6-({1-[2-(7-methoxy-quinoxalin-2-ylsulfanyl)-ethyl]-piperidin-4-ylamino}-methyl)-4H-pyrido[3,2-b][1,4]oxazin-3-one] | ≤ 2 µg/mL | ≤ 2 µg/mL | ≤ 2 µg/mL | ≤ 2 µg/mL | ≤ 2 µg/mL | ≤ 4 µg/mL | ≤ 2 µg/mL
COc1ccc2ncc(SCCN3CCC(NCc4ccc5c(c4)NC(=O)CS5)CC3)nc2c1 [Example 46, 6-({1-[2-(7-methoxy-quinoxalin-2-ylsulfanyl)-ethyl]-piperidin-4-ylamino}-methyl)-4H-benzo[1,4]thiazin-3-one] | ≤ 2 µg/mL | ≤ 2 µg/mL | ≤ 2 µg/mL | ≤ 2 µg/mL | ≤ 2 µg/mL | ≤ 4 µg/mL | ≤ 2 µg/mL
CCN(Cc1ccc2c(c1)OCCO2)C1CCN(CCSc2cnc3ccc(OC)cc3n2)CC1 [Example 47, (2,3-dihydro-benzo[1,4]dioxin-6-ylmethyl)-ethyl-{1-[2-(7-methoxy-quinoxalin-2-ylsulfanyl)-ethyl]-piperidin-4-yl}-amine] | ≤ 2 µg/mL | 32 µg/mL (≈ 64.7 µM) | ≤ 2 µg/mL | ≤ 2 µg/mL | ≤ 2 µg/mL |  | ≤ 2 µg/mL
COc1ccc2ncc(SCCN3CCC(NCc4cc5c(cc4Cl)SCC(=O)N5)CC3)nc2c1 [Example 48, 7-chloro-6-({1-[2-(7-methoxy-quinoxalin-2-ylsulfanyl)-ethyl]-piperidin-4-ylamino}-methyl)-4H-benzo[1,4]thiazin-3-one] | ≤ 2 µg/mL | ≤ 2 µg/mL | ≤ 2 µg/mL | ≤ 2 µg/mL | ≤ 2 µg/mL | ≤ 4 µg/mL | ≤ 2 µg/mL
COc1ccc2ncc(SCCN3CCC(NCc4cc5c(cc4Cl)SCCN5)CC3)nc2c1 [Example 49, (7-chloro-3,4-dihydro-2H-benzo[1,4]thiazin-6-ylmethyl)-{1-[2-(7-methoxy-quinoxalin-2-ylsulfanyl)-ethyl]-piperidin-4-yl}-amine] | ≤ 2 µg/mL | 4 µg/mL (≈ 7.75 µM) | ≤ 2 µg/mL | ≤ 2 µg/mL | ≤ 2 µg/mL | ≤ 4 µg/mL | ≤ 2 µg/mL
COc1ccc2ncc(SCCN3CCC(NC(=O)c4ccc5c(n4)NC(=O)CS5)CC3)nc2c1 [Example 50, 3-oxo-3,4-dihydro-2H-pyrido[3,2-b][1,4]thiazine-6-carboxylic acid {1-[2-(7-methoxy-quinoxalin-2-ylsulfanyl)-ethyl]-piperidin-4-yl}-amide] | ≤ 2 µg/mL | 4 µg/mL (≈ 7.83 µM) | ≤ 2 µg/mL | ≤ 2 µg/mL | ≤ 2 µg/mL | ≤ 4 µg/mL | ≤ 2 µg/mL
COc1ccc2ncc(SCCN3CCC(NC(=O)c4nc5c(cc4Cl)SCC(=O)N5)CC3)nc2c1 [Example 51, 7-chloro-3-oxo-3,4-dihydro-2H-pyrido[3,2-b][1,4]thiazine-6-carboxylic acid {1-[2-(7-methoxy-quinoxalin-2-ylsulfanyl)-ethyl]-piperidin-4-yl}-amide] | ≤ 2 µg/mL | 4 µg/mL (≈ 7.34 µM) | ≤ 2 µg/mL | 4 µg/mL (≈ 7.34 µM) | ≤ 2 µg/mL | ≤ 4 µg/mL | 
COc1ccc2ncc(SCCN3CCC(N(C)C(=O)c4ccc5c(c4)NC(=O)CS5)CC3)nc2c1 [Example 52, 3-oxo-3,4-dihydro-2H-benzo[1,4]thiazine-6-carboxylic acid {1-[2-(7-methoxy-quinoxalin-2-ylsulfanyl)-ethyl]-piperidin-4-yl}-methyl-amide] | ≤ 2 µg/mL | 16 µg/mL (≈ 30.6 µM) | ≤ 2 µg/mL | ≤ 2 µg/mL | ≤ 2 µg/mL |  | ≤ 2 µg/mL
COc1ccc2ncc(SCCN3CCC(NC(=O)c4ccc5c(c4)NC(=O)CS5)CC3)cc2c1 [Example 53, 3-oxo-3,4-dihydro-2H-benzo[1,4]thiazine-6-carboxylic acid {1-[2-(6-methoxy-quinolin-3-ylsulfanyl)-ethyl]-piperidin-4-yl}-amide] | ≤ 2 µg/mL | 4 µg/mL (≈ 7.86 µM) | ≤ 2 µg/mL | ≤ 2 µg/mL | ≤ 2 µg/mL | ≤ 4 µg/mL | ≤ 2 µg/mL
COc1ccc2ncc(SCCN3CCC(NC(=O)c4cc5c(cc4Cl)SCC(=O)N5)CC3)cc2c1 [Example 54, 7-chloro-3-oxo-3,4-dihydro-2H-benzo[1,4]thiazine-6-carboxylic acid {1-[2-(6-methoxy-quinolin-3-ylsulfanyl)-ethyl]-piperidin-4-yl}-amide] | ≤ 2 µg/mL | 4 µg/mL (≈ 7.36 µM) | ≤ 2 µg/mL | 4 µg/mL (≈ 7.36 µM) | ≤ 2 µg/mL | ≤ 4 µg/mL | 
COc1ccc2ncc(SCCN3CCC(NC(=O)c4ccc5c(n4)NC(=O)CS5)CC3)cc2c1 [Example 55, 3-oxo-3,4-dihydro-2H-pyrido[3,2-b][1,4]thiazine-6-carboxylic acid {1-[2-(6-methoxy-quinolin-3-ylsulfanyl)-ethyl]-piperidin-4-yl}-amide] | ≤ 2 µg/mL | 16 µg/mL (≈ 31.4 µM) | ≤ 2 µg/mL | ≤ 2 µg/mL | ≤ 2 µg/mL |  | ≤ 2 µg/mL
